Assay results reported in article PMC4111603 (PLoS ONE, 2014).
Like-named read-outs stand apart in the source and are kept apart here.

Assays:
[1] = biological target: T1, rat brain FAAH (Rattus norvegicus, UniProt P97612); test: FAAH hydrolysis of [3H]AEA in rat brain homogenates; type: biochemical; details: 0.5 µM AEA
T1 construct: FAAH activity was quantified by measuring hydrolysis of tritium labelled AEA in rat brain homogenates; from tissue; host or cells: rat brain (minus cerebella), Wistar or Sprague-Dawley, washed membrane pellets
T1 sequence (P97612 1-579): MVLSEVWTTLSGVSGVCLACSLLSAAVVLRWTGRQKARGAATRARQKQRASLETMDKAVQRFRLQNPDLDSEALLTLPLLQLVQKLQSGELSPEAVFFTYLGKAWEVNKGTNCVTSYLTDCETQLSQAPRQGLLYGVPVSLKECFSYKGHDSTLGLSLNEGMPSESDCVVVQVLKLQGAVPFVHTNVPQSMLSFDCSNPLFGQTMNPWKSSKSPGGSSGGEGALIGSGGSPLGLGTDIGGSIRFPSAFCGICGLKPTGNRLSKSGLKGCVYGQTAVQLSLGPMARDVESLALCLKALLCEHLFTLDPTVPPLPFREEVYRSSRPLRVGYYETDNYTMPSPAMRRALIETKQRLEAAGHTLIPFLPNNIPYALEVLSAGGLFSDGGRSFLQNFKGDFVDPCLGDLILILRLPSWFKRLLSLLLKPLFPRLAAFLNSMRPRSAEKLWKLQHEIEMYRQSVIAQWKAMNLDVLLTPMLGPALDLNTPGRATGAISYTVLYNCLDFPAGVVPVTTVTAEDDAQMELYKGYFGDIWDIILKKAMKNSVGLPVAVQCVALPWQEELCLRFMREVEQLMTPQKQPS
Experimental: Brains (minus cerebella) from adult Wistar or Sprague-Dawley stored at −80°C were thawed, weighed and homogenized in cold buffer (20 mM HEPES, 1 mM MgCl2 pH 7.0). Homogenates were centrifuged at 35,000 g at 4°C for 20 min and the pellet was resuspended in homogenization buffer (repeated twice) before being incubated at 37°C for 15 min to degrade any endogenous substrate that might interfere with the FAAH assay. Following centrifugation, the pellets were resuspended in cold buffer (50 mM Tris-HCl, 1 mM EDTA, 3 mM MgCl2, pH 7.4). The protein concentration of each homogenates was determined according to the Bradford assay after which the samples were frozen in aliquots at −80°C until used for FAAH assay. Ethical permission for the animal experiments was obtained from the local animal research ethical committee (Umeå Ethical Committee for Animal Research, Umeå, Sweden).
The assay was performed according to Boldrup et al.. Homogenates (1 µg protein per assay) diluted in 10 mM Tris-HCl, 1 mM EDTA, pH 7.4 or pH 5.1 were mixed with test substance dissolved in DMSO (total concentration in assay 5%) at an ambient temperature of 4°C. Reactions were initiated by addition of AEA-[^3H] (assay concentration 0.5 µM) in 10 mM Tris-HCl, 1 mM EDTA, pH 7.4 containing 10 mg ml^−1 fatty acid-free bovine serum and incubation at 37°C which was allowed to proceed for 10 min. […] Blank samples contained buffer instead of homogenate and DMSO (5%). The assay volume of each sample was 200 µl. The pH values given in the text were determined by measurement at 37°C of scaled-up mixtures of homogenization and assay buffers. The reaction was terminated by addition of 400 µl activated charcoal (80 µl activated charcoal +320 µl 0.5 M HCl) and placement of samples on ice. Samples were kept in room temperature for 45–60 min before being centrifuged at 2500 rpm for 10 min. Aliquots (200 µl) of the supernatant was analyzed for tritium content by liquid scintillation with quench correction.
(§1) FAAH inhibition was calculated using log(inhibitor) vs. response with variable slope (four parameters) algorithm in the GraphPad Prism computer program (GraphPad Software Inc., San Diego, CA. USA). […] The two curves were compared by Akaike’s informative criteria and the best fit was chosen. Initial COX activities were calculated as the change in oxygen tension between 10 and 30 seconds after addition of enzyme.

[2] = cited from earlier work
[3] = biological target: T2, human recombinant COX-2 (Homo sapiens, UniProt P35354); test: COX-2 oxygenation of arachidonic acid, oxygen electrode; type: biochemical; details: for COX-2 activity (% of control): substrate AA 10 µM, initial activity 10-30 s, n = 3
T2 construct: purchased Cayman Chemical Co. 60122
T2 sequence (P35354 18-604): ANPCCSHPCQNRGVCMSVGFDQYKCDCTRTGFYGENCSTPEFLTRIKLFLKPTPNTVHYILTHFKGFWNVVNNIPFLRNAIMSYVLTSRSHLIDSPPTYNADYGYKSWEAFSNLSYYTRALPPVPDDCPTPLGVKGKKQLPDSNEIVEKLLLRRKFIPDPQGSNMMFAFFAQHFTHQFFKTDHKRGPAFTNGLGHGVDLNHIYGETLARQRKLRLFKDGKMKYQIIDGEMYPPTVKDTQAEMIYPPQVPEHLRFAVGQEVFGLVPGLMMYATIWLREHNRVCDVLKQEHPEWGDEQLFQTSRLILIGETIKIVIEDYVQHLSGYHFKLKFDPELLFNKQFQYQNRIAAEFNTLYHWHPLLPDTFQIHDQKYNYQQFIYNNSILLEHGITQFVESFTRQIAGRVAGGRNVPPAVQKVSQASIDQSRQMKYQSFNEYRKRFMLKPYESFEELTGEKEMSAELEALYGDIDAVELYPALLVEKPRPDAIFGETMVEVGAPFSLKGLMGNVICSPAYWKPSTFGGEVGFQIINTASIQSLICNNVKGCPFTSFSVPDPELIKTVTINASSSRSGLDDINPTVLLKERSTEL
Experimental: The assay was performed according to Meade et al. with minor modifications using an oxygen electrode chamber with integral stirring (Oxygraph System, Hansatech Instruments, King’s Lynn, U.K.). The electrode was calibrated to ambient temperature and air pressure. Samples were prepared in 0.1 M Tris-HCl buffer pH 7.4 containing 1 µM haematin, 2 mM phenol, 5 mM EDTA, 10 µM substrate (AA or 2-AG) (final assay volume was 2 ml). After addition of test substance dissolved in DMSO (final assay concentration 1%) a baseline was established for 5 min before initiation of reaction by addition of 200 units COX-1 or COX-2. Change in oxygen consumption was monitored for approximately 5 min.
as §1

[4] = pH 6.0, read-out: IC50, inhibition of [3H]AEA hydrolysis (converted)
[5] = pH 6.0, read-out: pI50, inhibition of [3H]AEA hydrolysis (converted)
[6] = pH 7.3, read-out: IC50, inhibition of [3H]AEA hydrolysis (converted)
[7] = pH 7.3, read-out: pI50, inhibition of [3H]AEA hydrolysis (converted)

Compound | IC50 [1, 4] | IC50 [1, 5] | inhibition at 1000 µM ([1]; read-out: % inhibition of [3H]AEA hydrolysis @ 1000 µM, pH 7.3, 1000 µM compound) | urinary recovery ([2]; 24 h after administration of 400 mg of ibuprofen) | COX-2 activity (% of control) ([3]; 100 µM NSAID) | COX-2 activity (% of control) ([3]; 300 µM NSAID) | IC50 [1, 6] | IC50 [1, 7] | share of the dose recovered in the urine ([2]; flurbiprofen 50 mg a day for 10 consecutive days) | inhibition of COX-2-catalysed oxygenation of arachidonic acid (result in words) [3] | COX-2 activity (% of control) ([3]; 30 µM NSAID)
CC(C(=O)O)c1ccc(CC(C)(C)O)cc1 (stereo not drawn) [2′-OH-Ibuprofen, 2-[4-(2-hydroxy-2-methylpropyl)phenyl]propionic acid] | 380 µM | 380 µM | 15 ± 7% | 23% | 98±17 % of control | 83±12 % of control |  |  |  |  | 
CC(C(=O)O)c1ccc(-c2ccc(O)cc2)c(F)c1 (stereo not drawn) [4′-OH-Flurbiprofen] | 84 µM | 85.1 µM |  |  | 106±16 % of control | 106±9 % of control | 310 µM | 316 µM | 43% | failed to inhibit | 88±16 % of control
CC(CO)Cc1ccc(C(C)C(=O)O)cc1 (stereo not drawn) [3′-OH-Ibuprofen, 2-[4-(3-hydroxy-2-methylpropyl)phenyl]propionic acid] | 200 µM | 200 µM |  |  | 103±21 % of control | 84±10 % of control | 990 µM | 977 µM |  |  | 
